This note sets out measurements from patent US20050009770A1, “Use of excipients to increase DNA uptake by swine muscle cells” (priority 2002, published 2005).

SMILES strings stand for the structures.

The assay relates to swine muscle cells. Nature of the assay: Excipient testing in pigs: X-gal staining of muscle after IM injection of β galactosidase plasmid DNA with excipient. It counts as in vivo. To be noted: excipient combined with plasmid DNA containing a β galactosidase gene; conclusion. As for the experimental part: Solutions of sucrose (3-7%), DMSO (18-22%), Tween 80 (0.03-0.07%), or E. coli recombinant modified labile toxin (rmLT) (23-27 ug/dose) can be formulated at the desired final concentration in 150 mM sodium phosphate, pH 7.2, containing 1 mg/ml of the plasmid DNA of interest. Solutions can be assembled by dissolving the excipients and plasmid DNA in 150 mM sodium phosphate, pH 7.2 at the desired concentration. Alternatively, the preparations can be prepared as sub-solution, at twice their final concentration in 150 mM sodium phosphate, pH 7.2, and then mixed in equal volumes immediately prior to administration. The SEPA-DNA solution is prepared by adding 1 part of the respective DNA solution, at 5 mg/ml, to 4 parts SEPA.
Table 1 contains the scoring results of X-gal staining in swine muscles 5 days following injection of the various DNA and excipients solutions.
Each pig received a total of 6 injections. All injections administered in the longissimus dorsi muscle (3/side). Injections were approximately 2.5″ lateral to the spine. On each side of the pig, one site was located at approximately the last rib, and the two others were at approximately 6″ and 12″ cranial (towards the nose) from the last rib. Hair was clipped in an area approximately 1″ square to aid identification of injection sites. Injections were made in the center of each shaved area, at approximately 90′ angle to the skin surface. The pigs were restrained briefly in a self-locking head catch chute and the test article administered IM using a 1.5″ long 18 gauge needle attached to a 3 ml syringe. Each test article (treatment) was administered in a total of 3 injection sites (each on a different pig). The total volume of each injection was 1 ml.
Pigs were euthanized 5 days following administration of the respective DNA and excipient solution. A section of tissue approximately 1″ cubed, surrounding the point of entry of the needle, was excised. […] The amount of staining was determined by visual observation using a subjective scale from “No Staining” through a gradation to “Yes++++”. […]
As to `OC[C@H]1O[C@@](CO)(O[C@H]2O[C@H](CO)[C@@H](O)[C@H](O)[C@H]2O)[C@@H](O)[C@@H]1O` [5% Sucrose, sucrose], the “DNA uptake by swine muscle cells, as indicated by tissue staining” value (“DNA uptake by swine muscle cells” below) was “enhanced DNA uptake”. Consider `C[S+](C)[O-]` [20% Dimethyl sulfoxide, dimethyl sulfoxide], for which the “DNA uptake by swine muscle cells” value is recorded as “enhanced DNA uptake”. As to `CCCCCCCCCC1OCCO1` [SEPA solution, 2-n-Nonyl-1,3-dioxolane], the “DNA uptake by swine muscle cells” value is given as “enhanced DNA uptake”.
